Source: patent US20190225650A1, “PEPTIDOMIMETIC MACROCYCLES AND USE THEREOF IN REGULATING HIF1ALPHA” (AILERON THERAPEUTICS, INC., priority 2013, published 2019)
Bridge positions count the residues as written; N and C are the ends. Square brackets hold non-standard residues; d marks the D form. Peptide text beside a SMILES is read from it. R8 = C=CCCCCCC[C@@](C)(N)C(=O)O; S5 = C=CCCC[C@](C)(N)C(=O)O; Nle = CCCC[C@H](N)C(=O)O

target: T1, flag-tagged HIF1α (AA 786-826) / His6-tagged p300 (AA 323-423) complex (Homo sapiens, UniProt Q09472); assay: HIF1α p300 displacement assay (TR FRET, +CHAPS); assay type: binding; conditions: read-out: IC50 (nM) (HIF1α_p300 Displacement + CHAPS)
T1 construct: His6-tagged p300 (AA 323-423); made in house; host or cells: E. coli (pETDuet vector)
Protocol: The ability of peptides to displace HIF1α c-terminal trans-activation domain from p300-CH was measured by a TR FRET assay. A complex of flag-tagged HIF1α (AA 786-826) and His6-tagged p300 (AA 323-423) was co-expressed using pETDuet vector (EMDMillipore, Bellrica Mass.) and purified from E. coli in the presence of 0.1 mM ZnSO4. The complex was diluted to 300 nM final in complete assay media and competitor peptides were added. The complete assay media contained 150 mM NaCl (Sigma +S5150 or equivalent), 20 mM HEPES pH 7.4 (Boston Bioproducts, Ashland, Mass.; #BB-2076), 7.5 mM CHAPS (Thermo #28300 or equivalent), and 1 mM DTT. Protein and peptide were incubated at room temperature for 1 hour before the addition of anti-Flag-K and anti-6×HIS-D2 (CisBio, Bedford Mass.) HTRF reconstitution buffer (50 mM Phosphate pH 7, 0.8 Potassium Flouride, BSA 0.2%)^1 to a final concentration of 0.5 μM and 4 nM respectively. The reaction continued for an additional two hours at room temperature. The reaction was read on a TECAN F500 plate reader with settings recommended by CisBio. The ratio of donor to acceptor fluorescence was calculated. The resulting data was analyzed with Graphpad Prism 5.0. IC50 values were calculated for both proteins using the One Site Fit-LogIC50 equation and presented in the column “IC50 (nM) (HIF1α_p300 Displacement+CHAPS)” of Table 6. ^1 Cisbio USA, Bedford, Mass.; 61HISDLB (lot 007A), 61FG2KLB (024A), HTRF Buffer (62RB3RDF)

| SMILES | IC50 [nM] |
| --- | --- |
| CCCC[C@H](NC(=O)[C@H](CC(C)C)NC(=O)[C@@H](NC(=O)[C@H](C)NC(=O)[C@H](CCC(=O)O)NC(=O)[C@H](C)NC(=O)[C@@H](NC(=O)[C@H](Cc1ccccc1)NC(C)=O)[C@@H](C)CC)C(C)C)C(=O)N[C@@]1(C)CCCC=CCCC[C@@](C)(C(=O)N[C@@H](CCCC)C(=O)N[C@@H](C)C(=O)N[C@@H](CC(C)C)C(=O)N[C@@H](CC(=O)O)C(=O)N[C@@H](C)C(=O)N[C@H](C(N)=O)[C@@H](C)CC)NC(=O)[C@H]([C@@H](C)CC)NC(=O)[C@H](C(C)C)NC(=O)[C@H](CC(C)C)NC1=O [SP-222] (Ac-FIAEAVL[Nle][S5]LVI[S5][Nle]ALDAI-NH2; staple 9-13) | 200 to 400 |
| CCCC[C@@H]1NC(=O)[C@H](CC(C)C)NC(=O)[C@H](C(C)C)NC(=O)[C@@](C)(NC(=O)[C@H](CCC(=O)O)NC(=O)[C@H](CC(=O)O)NC(=O)[C@@H](NC(=O)[C@H](Cc2ccccc2)NC(C)=O)[C@@H](C)CC)CCCC=CCCCC2(CCCC=CCCC[C@](C)(C(=O)N[C@@H](CCCC)C(=O)N[C@@H](C)C(=O)N[C@@H](CC(C)C)C(N)=O)NC(=O)[C@H]([C@@H](C)CC)NC(=O)[C@H](C(C)C)NC(=O)[C@H](CC(C)C)NC2=O)NC1=O (stereo partly shown) [SP-204] | > 700 |
| CCCC[C@@H]1NC(=O)[C@H](CC(C)C)NC(=O)[C@H](C(C)C)NC(=O)[C@](C)(NC(=O)[C@H](CCC(=O)O)NC(=O)[C@H](CC(=O)O)NC(=O)[C@@H](NC(=O)[C@H](Cc2ccccc2)NC(C)=O)[C@@H](C)CC)CCCCCCC=CCCC[C@@](C)(C(=O)N[C@@H](CCC(=O)O)C(=O)N[C@@H](CCSC)C(=O)NCC(N)=O)NC(=O)[C@H](C(C)C)NC(=O)[C@H](CC(C)C)NC(=O)[C@H](CO)NC1=O [SP-185] (Ac-FIDE[R8]VL[Nle]SLV[S5]EMG-NH2; staple 5-12) | > 700 |
| CC[C@H](C)[C@H](NC(=O)[C@H](Cc1ccccc1)NC(C)=O)C(=O)N[C@@H](CC(=O)O)C(=O)N[C@@H](CCC(=O)O)C(=O)N[C@]1(C)CCCCCCC=CCCC[C@@](C)(C(=O)N[C@@H](CCC(=O)O)C(=O)N[C@@H](CCSC)C(=O)NCC(=O)N[C@@H](CC(C)C)C(=O)N[C@@H](CC(=O)O)C(N)=O)NC(=O)[C@H](C(C)C)NC(=O)[C@H](CC(C)C)NC(=O)[C@H](CO)NC(=O)[C@H](CCSC)NC(=O)[C@H](CC(C)C)NC(=O)[C@H](C(C)C)NC1=O [SP-188] (Ac-FIDE[R8]VLMSLV[S5]EMGLD-NH2; staple 5-12) | > 700 |
| CCCC[C@H](NC(=O)[C@H](CCC(=O)O)NC(=O)[C@]1(C)CCCC=CCCCCCC[C@@](C)(NC(=O)[C@H](CCC(=O)O)NC(=O)[C@H](CC(=O)O)NC(=O)[C@@H](NC(=O)[C@H](Cc2ccccc2)NC(C)=O)[C@@H](C)CC)C(=O)N[C@@H](C(C)C)C(=O)N[C@@H](CC(C)C)C(=O)N[C@@H](CCSC)C(=O)N[C@@H](CO)C(=O)N[C@@H](CC(C)C)C(=O)N[C@@H](C(C)C)C(=O)N1)C(=O)NCC(N)=O [SP-186] (Ac-FIDE[R8]VLMSLV[S5]E[Nle]G-NH2; staple 5-12) | > 700 |

Continued, values first:

| IC50 [nM] | SMILES |
| --- | --- |
| > 700 | CCCC[C@@H]1NC(=O)[C@](C)(NC(=O)[C@@H](NC(=O)[C@H](CCC(=O)O)NC(=O)[C@H](CCC(=O)O)NC(=O)[C@H](CC(=O)O)NC(=O)[C@@H](NC(=O)[C@H](CC(N)=O)NC(=O)[C@@H](NC(=O)[C@H](CCC(N)=O)NC(=O)[C@]2(C)CCCC=CCCC[C@](C)(NC(=O)[C@H](CC(C)C)NC(=O)[C@H](CCC(=O)O)NC(=O)[C@H](CCC(=O)O)NC(=O)CNC(=O)[C@H](CCC(N)=O)NC(=O)[C@H](CC(C)C)NC(=O)[C@H](CC(C)C)NC(C)=O)C(=O)N[C@@H](CCCNC(=N)N)C(=O)N[C@@H](C)C(=O)N[C@@H](CC(C)C)C(=O)N2)C(C)C)[C@@H](C)CC)C(C)C)CCCCCCC=CCCC[C@@](C)(C(=O)NCC(N)=O)NC(=O)[C@H](CCC(=O)O)NC(=O)[C@H]([C@@H](C)CC)NC(=O)[C@H](C(C)C)NC(=O)[C@H](CC(C)C)NC(=O)[C@H](CO)NC1=O [SP-316] (Ac-LLQGEEL[S5]RAL[S5]QVNIDEEV[R8][Nle]SLVIE[S5]G-NH2; staple 8-12, 21-28) |
| > 700 | CCCC[C@H](NC(=O)[C@H](CCC(=O)O)NC(=O)[C@@H](NC(=O)[C@]1(C)CCCC=CCCC[C@](C)(NC(=O)[C@@H](NC(=O)[C@H](CCC(=O)O)NC(=O)[C@H](CCC(=O)O)NC(=O)[C@H](CC(=O)O)NC(=O)[C@@H](NC(=O)[C@H](CC(N)=O)NC(=O)[C@@H](NC(=O)[C@H](CCC(N)=O)NC(=O)[C@H](CC(=O)O)NC(=O)[C@H](CC(C)C)NC(=O)[C@H](C)NC(=O)[C@H](CCCNC(=N)N)NC(=O)[C@]2(C)CCCC=CCCC[C@](C)(NC(=O)[C@H](CCC(N)=O)NC(=O)[C@H](CC(C)C)NC(=O)[C@H](CC(C)C)NC(C)=O)C(=O)N[C@@H](CCC(=O)O)C(=O)N[C@@H](CCC(=O)O)C(=O)N[C@@H](CC(C)C)C(=O)N2)C(C)C)[C@@H](C)CC)C(C)C)C(=O)N[C@@H](CCCC)C(=O)N[C@@H](CO)C(=O)N[C@@H](CC(C)C)C(=O)N1)[C@@H](C)CC)C(=O)NCC(N)=O [SP-302] (Ac-LLQ[S5]EEL[S5]RALDQVNIDEEV[S5][Nle]SL[S5]IE[Nle]G-NH2; staple 4-8, 21-25) |
| > 700 | CCCC[C@H](NC(=O)[C@H](CCC(=O)O)NC(=O)[C@@H](NC(=O)[C@@H](NC(=O)[C@H](CC(C)C)NC(=O)[C@]1(C)CCCC=CCCC[C@](C)(NC(=O)[C@H](CCC(=O)O)NC(=O)[C@H](CC(=O)O)NC(=O)[C@@H](NC(=O)[C@H](Cc2ccccc2)NC(=O)[C@H](CCCCN)NC(=O)[C@H](CCCCN)NC(C)=O)[C@@H](C)CC)C(=O)N[C@@H](C(C)C)C(=O)N[C@@H](CC(C)C)C(=O)N[C@@H](CCCC)C(=O)N1)C(C)C)[C@@H](C)CC)C(=O)N[C@@H](C)C(=O)N[C@@H](CC(C)C)C(=O)N[C@@H](CCCCN)C(=O)N[C@@H](CCCCN)C(N)=O [SP-137] (Ac-KKFIDE[S5]VL[Nle][S5]LVIE[Nle]ALKK-NH2; staple 7-11) |
| > 700 | CC[C@H](C)[C@H](NC(=O)[C@H](Cc1ccccc1)NC(C)=O)C(=O)N[C@@H](CC(=O)O)C(=O)N[C@@H](CCC(=O)O)C(=O)N[C@]1(C)CCCCCCC=CCCC[C@@](C)(C(=O)N[C@@H](CCC(=O)O)C(=O)N[C@@H](CCSC)C(=O)NCC(=O)N[C@@H](CC(C)C)C(=O)N[C@@H](CC(=O)O)C(=O)N[C@@H](CCCNC(=N)N)C(N)=O)NC(=O)[C@H](C(C)C)NC(=O)[C@H](CC(C)C)NC(=O)[C@H](CO)NC(=O)[C@H](CCSC)NC(=O)[C@H](CC(C)C)NC(=O)[C@H](C(C)C)NC1=O [SP-189] (Ac-FIDE[R8]VLMSLV[S5]EMGLDR-NH2; staple 5-12) |
| > 700 | CCCC[C@@H]1NC(=O)[C@](C)(NC(=O)[C@@H](NC(=O)[C@H](CCC(=O)O)NC(=O)[C@H](CCC(=O)O)NC(=O)[C@H](CC(=O)O)NC(=O)[C@@H](NC(=O)[C@H](CC(N)=O)NC(=O)[C@@H](NC(=O)[C@]2(C)CCCC=CCCCCCC[C@@](C)(NC(=O)[C@H](CCC(=O)O)NC(=O)CNC(=O)[C@H](CCC(N)=O)NC(=O)[C@H](CC(C)C)NC(=O)[C@H](CC(C)C)NC(C)=O)C(=O)N[C@@H](CC(C)C)C(=O)N[C@@H](CC(C)C)C(=O)N[C@@H](CCCNC(=N)N)C(=O)N[C@@H](C)C(=O)N[C@@H](CC(C)C)C(=O)N[C@@H](CC(=O)O)C(=O)N2)C(C)C)[C@@H](C)CC)C(C)C)CCCCCCC=CCCC[C@@](C)(C(=O)NCC(N)=O)NC(=O)[C@H](CCC(=O)O)NC(=O)[C@H]([C@@H](C)CC)NC(=O)[C@H](C(C)C)NC(=O)[C@H](CC(C)C)NC(=O)[C@H](CO)NC1=O [SP-317] (Ac-LLQGE[R8]LLRALD[S5]VNIDEEV[R8][Nle]SLVIE[S5]G-NH2; staple 6-13, 21-28) |
